Data from US12102685B2, “Immodulator peptides covalently modified with small molecules” (priority 2020, dated 2024).
Marks after values point to notes of the source that are not given here. Square brackets hold non-standard residues; d marks the D form. Ends that are not written are not given here. Peptide text beside a SMILES is read from it. * marks the point of attachment. RG108 = O=C1c2ccccc2C(=O)N1[C@@H](Cc1c[nH]c2ccccc12)C(=O)*

What was measured:
[1] = test system: COL1 in HFF-1 dermal fibroblasts; assay: Collagen-1 ELISA in HFF-1 dermal fibroblasts (x11A); type: cell-based; conditions: peptide 2 uM, 72 hour; control (buffer) = 100
Experimental: (§1) Immune modulation functions of immodulator peptides have potential untility in the field of cosmetics. HFF-1 cell line was obtained from American Type Culture Collection (ATCC). Cells were grown in a T-75 flask in DMEM Medium containing 10% fetal bovine serum and penicillin-streptomycin at 37° C. in a humidified, 5% CO2 incubator. Cells ([…], 2,000 cells/well) were plated in a 96-well plate and incubated overnight at 37° C. in a humidified, 5% CO2 incubator. Next day, […] of compounds were added (quadruplicate wells). After 72 hour incubation with the compound, supernatants were collected for Collagen-1 ELISA assay and cell viability was measured in a luminometer after the addition of […] CellTiterGlo reagent (Promega Inc, Madison, WI) as recommended by the manufacturer.
Collagen stimulating activity of immodulator peptides in HFF-1 dermal fibroblasts. Peptides were added to cells at 2 uM. COL1 immunoreactivity was measured in the supernatants of cultured cells by ELISA using a rabbit monoclonal anti-COL1 primary antibody (Abcam, Cambridge, MA). Control (buffer) value of immunoreactivity was set to 100.

A375 cells = assay: A375 cell viability, CellTiterGlo (x10A); type: cell-based; conditions: 72 hours
Experimental: as §1, with “have great” for “have”, “of cancer. A375” for “of cosmetics. HFF-1”, “(ATCC). They” for “(ATCC). Cells”, “compound,” for “compound, supernatants were collected for Collagen-1 ELISA assay and”
Experiment x10A. Anti-cancer activity of immodulator peptides on A375 cells. A 96-well plate was seeded with 2,000 A375 cells per well in DMEM medium containing 10% FBS and PenStrep. After 24 hrs at 37 deg C., compounds and peptides were added (each treatment done in quadruplicate). After a further 72 hours incubation, 100 uL/well of CTG assay reagent purchased from Promega Inc. (Madison, WI) was added. Plate was read after 10 minutes, as recommended by the manufacturer. Peptides were added at 2 uM. The results of this experiment are shown below, expressed as percent survival ofA375 cells.

[2] = Strength of binding to iron, plate assay (x2E b); conditions: 1 ug/well peptide complexed to Alexa-488-streptavidin; ferric iron
Experimental: Immodulator peptides were extended C-terminally by three amino acids, to include a valine residue that is highly conserved in the “thyroglobulin type 1 motif”. The reasoning behind this attempt is that a longer conserved sequence might lead to a tighter fold overall, which might in turn result in increased metal-binding avidity. • (b) Strength of binding to iron was evaluated by plate assay.
(§2) Experiments were conducted by the procedure described above. Ferric iron-charged NTA-coated 96-well plates were used as described. 1 ug/well immodulator peptide complexed to Alexa-488-labeled streptavidin in PBS buffer was added (60 min at room temperature). The plate was washed and counted in a standard fluorometer (excitation/emission: 485/525 nm). The results (fluorescence) show improved iron-binding by the three peptides extended C-terminally by the AVD, (dA)VD, and FVS tripeptides. **p<0.01 vs IM3 control IM3: 200±29; IM4: 45±37**; IM5: 130±77; IM3AVD: 434±29**; IM3dAVD: 418±28**; IM3FVS: 371±33** • (c) Competition assay. The same procedure was used as the preceding experiment, except that 375 ng/well labeled IM3 peptide was used, plus 10× of the indicated unlabeled peptide. ‘No competing peptide’ control value was set to 100. *p<0.05 vs “no peptide” control Competing Peptide/Fluorescence • None: 100±38; IM4: 125±26; IM3: 63±27*; IM5: 40±14*; IM3AVD: 10±28* • (d) Competition assay. The same procedure was used as the preceding experiment, except that labeled IM3AVD peptide was used. **p<0.01 vs “no competing peptide” control • None: 100±9; IM4: 144±44; IM3: 35±16**; IM5: 30±19**; IM3AVD: 9±19** • (e) The same procedure was used as the preceding experiment, except that each peptide was labeled with Alexa-488-labeled streptavidin in PBS buffer and used separately. Binding to IM3 was set to =100. *p<0.05, **p<0.01 vs IM3 control. (Labeled Peptide/Fluorescence) IM1: 1.8±0.4**; IM2: 3.0±1.8**; IM3: 100.0±16.8; IM4: 7.2±1.7*; IM5: 86.7±6.4; IM6: 85.9±14.9; IM3AVD:137.7±11.8*; IM3dAVD:147.4±22.9*; IM3FVS: 101.5±10.5.

[3] = Iron binding of separately labeled peptides (x2E e); conditions: each peptide labeled separately; IM3 = 100; ferric iron
Experimental: as §2

[4] = Competition binding assay to metal-charged NTA-coated plates (x2B b); conditions: PBS on calcium = 100
Experimental: NTA-metal-affinity fluorescence assay was performed using 96-well NTA-metal-coated plates readily available from commercial sources such as Qiagen (Germantown, MD). NTA was charged with ferrous or ferric iron, zinc, copper, calcium, vanadium, ruthenium, cobalt, titanium, manganese or other metals. 400 ng of FITC-labeled immodulator peptide (or biotinylated immodulator peptide complexed to Alexa-488-labeled streptavidin) in PBS buffer was added per plate. After incubation at room temperature for 60 minutes, excess peptide was washed off and peptide was detected by measuring fluorescence (excitation 490 nm, emmission 525 nm) in a fluorometer. • (a) Using FITC-labeled IM3 peptide (1 ug/well) in the fluorescent binding assay: • EDTA-treated control: 2,251±1,186 • Ferrous iron: 170,441±11,264 (p<0.001)* • Copper: 13,644±5566 (p<0.05)* • Calcium: 48,822±11,990 (p<0.01)* • *p values are relative to EDTA-treated control • (b) Competition binding assay to ferrous iron, calcium, copper and zinc-charged NTA-coated plates using FITC-labeled IM3 peptide (0.5 uM) and 8× (4 uM) unlabelled competitor peptides IM3N1, IM3N2 (*all comparisons to PBS control are p<0.01); # fluorescent value of binding to […] was set at 100.

NF-kappa-B (NFkB) = assay: THP1-Dual monocyte reporter, NF-kappa-B readout (x4A); type: cell-based; conditions: no peptide
Experimental: (§3) Immune modulation functions of immodulator peptides were measured using the monocyte reporter cell line THP1-Dual (Invivogen, San Diego, CA), which provides convenient readouts for STING and NF-kappa-B pathways. Optionally, succinic acid, cytokine and chemokine production were also measured. THP1-Dual cell line was obtained from Invivogen. Cells were grown in a T-75 flask in RPMI Medium containing 20% fetal bovine serum, blasticidin ([…]), zeocin ([…]) and penicillin-streptomycin at 37° C. in a humidified, 5% CO2 incubator. Cells ([…], 8,000 cells/well) were plated in a 96-well plate and incubated overnight at 37 °C in a humidified, 5% CO2 incubator. Next day, […] of compounds were added (quadruplicate wells). After 24 hour incubation with the compound, supernatants were harvested and stored at 4° C. prior to assay.
(§4) Each cell supernatant was assayed in quadruplicate. 20 uL of supernatant was used to measure NF-kappa-B (NFkB) and
(§5) STING activity using reagents QuantiBlu and QuantiLuc respectively, according to the manufacturer's recommendations (Invivogen, San Diego, CA). Succinic acid was measured by using a kit from Megazyme Inc (Cambridge, MA). Control value of activity was set to 100 in each assay. […] PAM3C=25 ng/ml PAM3CSK4 (TLR1/2 inducer); Poly(I:C)=10 ug/ml (TLR3 inducer); PAM2C=25 ng/ml PAM2CSK4 (TLR2/6 inducer); KIN14=4 uM KIN-1400 (RIG-I inducer); cytB=1 uM cytosporone B (Nur77 inducer); C-178=1 uM STING inhibitor; NFkBi=50 ug/ml NFkB inhibitor peptide; SB2021=10 uM p38MAPK inhibitor; *p<0.05, **p<0.01 vs IM3 control; #p<0.01 vs “no inducer” control; SUCC=succinic acid; nd=not done; Peptide was added to cells at 400 nM.
(§6) Peptides were added to cells at 400 nM. […]

THP1-Dual monocytes = assay: Succinic acid in THP1-Dual supernatant (x4A); type: cell-based; conditions: no peptide
Experimental: as §3, §5, §6

STING = assay: THP1-Dual monocyte reporter, STING readout (x4A); type: cell-based; conditions: no peptide
Experimental: as §3, §4, §5, §6

[5] = KIN1400 alone, IM3 + KIN1400 = 100
[6] = 25 ng/ml PAM3CSK4 alone, control = 100
[7] = 25 ng/ml PAM2CSK4 alone, IM3 + PAM2C = 100

AFNSYELGSKKGFYKKKQCRPSKGRKRGFCW [IM3K9.1]
COL1 immunoreactivity in supernatant [1]: 156**

(rg108)-KKGFYKKKQCRPSKGRKRGFCW (RG108-KKGFYKKKQCRPSKGRKRGFCW; cysteine pairing not given here) [IM3rg8, IM3 N-terminally conjugated with RG108]
percent survival of A375 cells (A375 cells; peptide 2 uM + Kin1400 4 uM (RIG-I agonist)): 105.8% | percent survival of A375 cells (A375 cells; peptide 2 uM, Buffer): 89.9** percent

AFNSYELGSKGFYKKKQCRPSKGRKRGFCWAVDKY [IM3K9c]
COL1 immunoreactivity in supernatant [1]: 158**

KKGFYKKKQCRPSKGRKRGFCW(dA)VD (KKGFYKKKQCRPSKGRKRGFCW[dA]VD; cysteine pairing not given here) [IM3dAVD, IM3 extended C-terminally by (dA)VD]
fluorescence (iron binding) [2]: 418±28 | fluorescence of labeled peptide [3]: 147.4±22.9

TGPSESYLQLEELVKQVVSKGFYKKKQCRPSKGRKRGFCW [IM3N2]
FITC-IM3 fluorescence with competitor ([4]; Calcium, 0.5 uM FITC-IM3, 8x (4 uM) unlabelled competitor): 12.9 ± 1.2* | FITC-IM3 fluorescence with competitor ([4]; Copper, 8x (4 uM) unlabelled competitor): 5.1 ± 1.0* | FITC-IM3 fluorescence with competitor ([4]; Ferrous iron, 8x (4 uM) unlabelled competitor): 25.2 ± 9.5* | FITC-IM3 fluorescence with competitor ([4]; Zinc, 8x (4 uM) unlabelled competitor): 13.4 ± 1.6*

FNSYELGSLKKGFYKKKQCRPSKGRKRGFCW [IM3K8]
COL1 immunoreactivity in supernatant [1]: 98

Oc1c(C(Nc2nc3ccccc3s2)c2ccc(OC(F)F)cc2)ccc2cccnc12 (centres unmarked) [KIN1400, KIN-1400, reference compound]
NFkB (NF-kappa-B (NFkB); KIN1400 (RIG-I agonist) alone, IM3 + KIN1400 = 100): 90.1 | SUCC (THP1-Dual monocytes; [5]): 100.1 | percent survival of A375 cells (A375 cells; Kin1400 4 uM alone, no peptide): 100.7% | STING (STING; [5]): 84.3**

PAM3CSK4 [reference compound]
NFkB (NF-kappa-B (NFkB); [6]): 326 # | STING (STING; [6]): 342 #

CC(C)[C@H](NC(=O)[C@H](Cc1ccccc1)NC(=O)[C@H](Cc1c[nH]c2ccccc12)NC(=O)[C@H](CS)NC(=O)[C@H](Cc1ccccc1)NC(=O)CNC(=O)[C@H](CCCNC(=N)N)NC(=O)[C@H](CCCCN)NC(=O)[C@H](CCCNC(=N)N)NC(=O)CNC(=O)[C@H](CCCCN)NC(=O)[C@H](CO)NC(=O)[C@@H]1CCCN1C(=O)[C@H](CCCNC(=N)N)NC(=O)[C@H](CS)NC(=O)[C@H](CCC(N)=O)NC(=O)[C@H](CCCCN)NC(=O)[C@H](CCCCN)NC(=O)[C@H](CCCCN)NC(=O)[C@H](Cc1ccc(O)cc1)NC(=O)[C@H](Cc1ccccc1)NC(=O)CNC(=O)[C@H](CCCCN)NC(=O)[C@@H](N)CCCCN)C(=O)N[C@@H](CO)C(=O)O [IM3FVS] (H-KKGFYKKKQCRPSKGRKRGFCWFVS-OH; N-terminus and C-terminus assumed)
fluorescence (iron binding) [2]: 371±33 | fluorescence of labeled peptide [3]: 101.5±10.5

AFNSYELGSKGFYKKKQCRPSKGRKRGFCW [IM3K9]
COL1 immunoreactivity in supernatant [1]: 155**

PAM2CSK4 [reference compound]
NFkB (NF-kappa-B (NFkB); [7]): 118.7** | SUCC (THP1-Dual monocytes; [7]): 121.5* | STING (STING; [7]): 144.5**
